Patent publication US20070197453A1, “Compositions and methods for treatment of disorders of protein aggregation” (priority 2006, published 2007)
Entries after “also recorded” stand apart in the source; their conditions may differ. Marks after values point to notes of the source that are not given here.

How the values were obtained:
[1] = tested on: LTP in mouse hippocampal slices; test: Long term potentiation in hippocampal slices with 7PA2 conditioned medium; format: cell-based; settings: compound treated culture media from plain CHO cells
Procedure: Long Term Potentiation. […] Swiss Webster mice between the ages of P16 and P26 were anesthetized with isoflurane. […] The hippocampus from each hemisphere was isolated and 350 μm coronal sections were made. […] Once placed in the chamber, slices were continuously perfused by a closed loop containing 15 ml of ACSF to conserve the oligomeric Aβ. […] A bipolar stimulating electrode (World Precision Inst.) was placed in the Schaffer collaterals to deliver baseline stimuli and tetani. A borosilicate glass recording electrode (2-4 MΩ) containing ACSF was positioned approximately 75-200 μm from the stimulating electrode. […] Test stimuli were delivered at 0.05 Hz. To induce LTP, 4 tetani (100 Hz for 1 second) were delivered 5 minutes apart. Field potential responses were amplified 10× using an Axopatch 200B. The data was sampled at 10 kHz and filtered at 2 kHz. Traces were analyzed using pClamp 9.2. The slope of the field potential was estimated using approximately 10-60% of the total response.

TgTauP301L mice = test: Synaptophysin reactivity in TgTauP301L mice; format: in vivo, mouse; settings: TgTauP301L mice after treatment
Procedure: Synaptophysin immunohistochemical staining was performed on 3 evenly spaced saggital sections of paraformaldehyde-fixed treated and control mice. Sections were immunolabelled for synaptophysin with anti-synaptophysin IgG (1:40; Roche, Laval, PQ). Digital images were captured and analyzed as described above. Within each section, three randomly chosen 100 μm^2 areas of the CA1 region of the hippocampus were counted for synaptophysin reactive cell bodies and boutons. The results are expressed as the mean of the number of reactive bodies and boutons per 100 μm^2 [29, 30].

Aβ42 [2] = molecular target: T1, Aβ42 (Homo sapiens, UniProt P05067); test: Plasma Aβ42 levels; format: in vivo, mouse; parameters: from tissue; host or cells: plasma of TgCRND8 transgenic mice; settings: TgCRND8 mice following 28 days of therapy at five months of age
Procedure: (§1) Plasma and Cerebral Aβ Content. Hemi-brain samples were homogenized in a buffered sucrose solution, followed by either 0.4% diethylamine/100 mM NaCl for soluble Aβ levels or cold formic acid for the isolation of total Aβ. After neutralization, the samples were diluted and analyzed for Aβ40 and Aβ42 using commercially available kits (BIOSOURCE International). Each hemisphere was analyzed in triplicate and the mean values±SEM reported. Western blot analyses were performed on all fractions using urea gels for Aβ species analyses. Aβ was detected using 6E10 (BIOSOURCE International) and Enhanced Chemiluminenscence (Amersham).
(§2) Cerebral Aβ Content. Hemi-brain samples were homogenized in a buffered sucrose solution, followed by either 0.4% diethylamine/100 mM NaCl for soluble Aβ levels or cold formic acid for the isolation of total Aβ [22]. After neutralization the samples were diluted and analyzed for Aβ40 and Aβ42 using commercially available kits (BIOSOURCE International). Each hemisphere was analyzed in triplicate with the mean±SEM reported. Plasma was diluted and run directly on the ELISA.
Target sequence in this assay (P05067 672-713): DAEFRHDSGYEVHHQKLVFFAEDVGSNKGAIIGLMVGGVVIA

TgCRND8 mice [3] = test: Vascular amyloid burden; format: in vivo, mouse; settings: compared to untreated and epi-inositol treated
Procedure: (§3) Cerebral amyloid burden. Brains were removed and one hemisphere was fixed in 4% paraformaldehyde and embedded in paraffin wax in the mid sagittal plane. To generate sets of systematic uniform random sections, 5 μm serial sections were collected across the entire hemisphere. Sets of sections at 50 μm intervals were used for analyses (10-14 sections/set). Plaques were identified after antigen retrieval with formic acid, and incubation with primary anti-Aβ antibody (Dako M-0872), followed by secondary antibody (Dako StreptABCcomplex/horseradish kit). End products were visualized with DAB and were counter-stained with luxol fast blue. Amyloid plaque burden was assessed with Leco IA-3001 image analysis software interfaced with Leica microscope and Hitachi KP-M1U CCD video camera. Openlab imaging software (Improvision, Lexington, Mass.) was then used to convert micrographs to binary images for plaque number and plaque area determinations. Vascular amyloid burden was defined as amyloid originating from or surrounding blood vessels and was analysed similarly.

Aβ42 [4] = molecular target: T1, Aβ42; test: Cerebral Aβ content: brain Aβ42 (ELISA kit); format: in vivo, mouse; parameters: from tissue; host or cells: hemi-brain homogenate of TgCRND8 transgenic mice; settings: TgCRND8 mice with pre-existing disease; 28 day treatment from 5 months of age
Procedure: as §1, §2
Target sequence in this assay (P05067 672-713 limits assumed): as the sequence (P05067 672-713) above

TgCRND8 mice [5] = test: Accelerating rotarod sensorimotor function; format: in vivo, mouse; settings: treated versus untreated TgCRND8 mice
Procedure: (§4) Behavioural tests: Morris Water Maze testing was performed as previously described. After non-spatial pre-training, mice underwent place discrimination training for 5 days with 4-trials per day, followed by a cued visible platform to rule out general motivational, learning deficits and motor problems, and a probe trial to evaluate memory. […] Open field test for motor activity was preformed as described previously. Duration of walking, pausing and grooming were analyzed as indices of spontaneous locomotor activity. Sensorimotor function was examined with an Economex™ accelerating rotarod (Columbus Instruments, Columbus, Ohio), as described elsewhere. The rod was set to accelerate at a rate of 0.2 r.p.m./s, from an initial, constant speed of 5 r.p.m. Latency to fall was recorded in four daily trials, conducted at 30 min intervals. All mice were trained for seven days before testing. The test day performance score for each animal was obtained by summing its latency to fall over the four trials

TgCRND8 mice [6] = test: Morris Water Maze spatial reference memory test; format: in vivo, mouse
Procedure: as §4
Behavioural tests: Behavioural analyses were performed using the Morris Water Maze test (13, 14). After pre-spatial training, mice underwent place discrimination training for 5 days with 4 trials per day, followed by a cued visible platform to rule out general motivational, learning deficits and motor problems. […] Open field test for motor activity was performed as described previously. Duration of walking, pausing, rearing and grooming were analyzed as indices of spontaneous locomotor activity.

TgCRND8 mice [7] = test: Survival census (Kaplan-Meier); format: in vivo, mouse; settings: compared to untreated TgCRND8 mice
Procedure: (§5) Survival Census: The probability of survival was assessed by the Kaplan-Meier technique, computing the probability of survival at every occurrence of death, thus making it suitable for small sample sizes. For the analyses of survival, 35 mice were used for each treatment group. The Tarone-Ware test was used to assess effects of treatments.
as §5, with “technique” for “technique,”, “30” for “35”

TgCRND8 mice [8] = test: Cerebral amyloid plaque burden (anti-Aβ immunostaining, image analysis); format: in vivo, mouse
Procedure: as §3

TgCRND8 mice [9] = test: Gliosis quantitation (GFAP astrocytes, CD68 microglia); format: in vivo, mouse
Procedure: Gliosis Quantitation. Five randomly selected, evenly spaced, sagittal sections were collected from paraformaldehyde-fixed and frozen hemispheres of treated and control mice. Sections were immunolabelled for astrocytes with anti-rat GFAP IgG2a (Dako; diluted 1:50) and for microglia with anti-rat CD68 IgG2b (Dako; 1:50). Digital images were captured using a Coolsnap digital camera (Photometrics, Tuscon, Ariz.) mounted to a Zeiss, Axioscope 2 Plus microscope. Images were analysed using Openlab 3.08 imaging software (Improvision, Lexington Mass.).

Aβ40 = molecular target: T2, Aβ40 (Homo sapiens, UniProt P05067); test: Cerebral Aβ content: brain Aβ40 (ELISA kit); format: in vivo, mouse; settings: TgCRND8 mice with pre-existing disease; 28 day treatment from 5 months of age
T2 construct: from tissue; host or cells: hemi-brain homogenate of TgCRND8 transgenic mice
Procedure: as §1, §2

[10] = six month old TgCRND8 mice, 28 days of oral treatment beginning at five months of age
[11] = TgCRND8 mice, 4-month Prophylactic (oral from 6 weeks to 4 months of age)
[12] = TgCRND8 mice, 6-month Prophylactic (oral from 6 weeks to 6 months of age)
[13] = TgCRND8 mice, 28 day course at 5 months of age, vs untreated
[14] = TgCRND8 mice, oral treatment for 28 days (1 month) from 5 months of age, analysed at 6 months

T2 sequence (P05067 672-711): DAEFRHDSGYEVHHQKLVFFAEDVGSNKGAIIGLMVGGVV

O[C@H]1[C@H](O)[C@@H](O)[C@H](O)[C@@H](O)[C@@H]1O [scyllo-cyclohexanehexol, 1,3,5/2,4,6-(scyllo-)cyclohexanehexol]
direct effect on LTP [1]: no direct effect on LTP
synaptophysin reactivity (TgTauP301L mice): unchanged
Plasma Aβ42 levels (Aβ42 [2]): 990 ± 73 pg/mL
total vascular Aβ load (TgCRND8 mice [3]): significantly decreased the total vascular load
effect on brain Aβ42 levels (Aβ42 [4]): reduced brain levels of Aβ40 and Aβ42
Rotarod sensorimotor function (TgCRND8 mice [5]): no difference
effects on cognition and pathology (TgCRND8 mice [6]; TgCRND8 mice, administered for 2 months, ending at 7 months of age): Sustained effects both on cognition and pathology were observed
Non-Tg littermate behaviour under treatment (TgCRND8 mice [6]; mouse, in vivo): not affected
cognition compared to non-Tg mice (TgCRND8 mice [6]; prophylactic treatment, four months of age): approached that of non-Tg mice
probe trial, % time in target quadrant (TgCRND8 mice [6]; separate cohort of TgCRND8 mice, compared to non-Tg littermates, data not shown): not statistically different from non-Tg littermates
spatial reference memory performance compared to non-Tg littermates (TgCRND8 mice [6]; [10]): indistinguishable from that of their non-Tg littermates
spatial reference memory performance compared to untreated TgCRND8 littermates (TgCRND8 mice [6]; [10]): significantly better behavioural performance compared to untreated TgCRND8 mice; also recorded: significantly better than untreated TgCRND8 littermates
Kaplan Meier cumulative survival (TgCRND8 mice [7]): increased survival
amyloid (plaque) burden, immunostaining (TgCRND8 mice [8]; TgCRND8 mice at six months of age, hippocampus and cerebral cortex): significantly decreased amyloid burden and gliosis
plaque burden (percent area of the brain covered with plaques, plaque number) (TgCRND8 mice [8]; TgCRND8 mice with pre-existing disease, one month treatment from 5 months of age): lower plaque burden
Mean Plaque Size (TgCRND8 mice [8]; [11]): 103 ± 4* μm^2
Total Plaque Area (TgCRND8 mice [8]; [11]): 63847 ± 2895 μm^2
Mean Plaque Size (TgCRND8 mice [8]; [12]): 339 ± 10† μm^2
Total Plaque Area (TgCRND8 mice [8]; [12]): 262379 ± 5373† μm^2
percent area of the brain covered by plaques reduction (TgCRND8 mice [8]; [13]): 14±0.5%
plaque number reduction (TgCRND8 mice [8]; [13]): 13±0.3%
plaque size reduction (TgCRND8 mice [8]; [13]): 16±0.4%
Mean Plaque Size (TgCRND8 mice [8]; [14]): 336 ± 6* μm^2
Total Plaque Area (TgCRND8 mice [8]; [14]): 420027 ± 14986* μm^2
percent brain area covered with microgliosis (TgCRND8 mice [9]; TgCRND8 mice): decreased the percent brain area covered with microgliosis
astrogliosis / gliosis, anti-GFAP immunostaining (TgCRND8 mice [9]; TgCRND8 mice at six months of age): significantly decreased amyloid burden and gliosis
percent brain area covered in astrogliosis (TgCRND8 mice [9]; TgCRND8 mice, 4- and 6-months of age): decreased the astrogliotic response to a greater extent at both ages
effect on brain Aβ40 levels (Aβ40): reduced brain levels of Aβ40 and Aβ42
